From US8933098B2, “Dimethyl-benzoic acid compounds” (Eli Lilly and Company, priority 2012, dated 2015)

Tests used:
[1] = target: human EP1 (Homo sapiens (Human), UniProt P34995); test: In vitro binding to human EP1, [3H]-PGE2 displacement on membranes; settings: HEK293 membranes, n = 1, read-out: hEP1, Ki
Experimental: (§1) hEP1 and hEP4 membranes are prepared from recombinant HEK293 cells stably expressing human EP1 (Genbank accession number AY275470) or EP4 (Genbank accession number AY429109) receptors. hEP2 and hEP3 membranes are prepared from HEK293 cells transiently transfected with EP2 (Genbank accession number AY275471) or EP3 (isoform VI: Genbank accession number AY429108) receptor plasmids. Frozen cell pellets are homogenized in homogenization buffer using a Teflon/glass homogenizer. Membrane protein is aliquoted and quick frozen on dry ice prior to storage at −80° C. Homogenization buffer contained 10 mM Tris-HCl, pH 7.4, 250 mM sucrose, 1 mM EDTA, 0.3 mM indomethacin and plus Complete™, with EDTA, obtained from Roche Molecular Biochemicals (Catalog Number 1 697 498).
(§2) Kd values for [3H]-PGE2 binding to each receptor are determined by saturation binding studies or homologous competition. Compounds are tested in a 96-well format using a three-fold dilution series to generate a 10-point curve. […] The membranes are harvested by filtration (TomTek harvester), washed 4 times with cold buffer (10 mM MES pH 6.0 with KOH, 10 mM MgCl2), dried in a 60° C. oven, and the radioactivity is quantified as counts per minute (CPM) using a TopCount detector. […]

[2] = target: human EP2 (Homo sapiens (Human), UniProt P43116); test: In vitro binding to human EP2, [3H]-PGE2 displacement on membranes; settings: HEK293 membranes, n = 1, read-out: hEP2, Ki
Experimental: as §1, §2

[3] = target: human EP3 (isoform VI) (Homo sapiens, UniProt P43115); test: In vitro binding to human EP3, [3H]-PGE2 displacement on membranes; settings: HEK293 membranes, n = 1, read-out: hEP3, Ki
Experimental: as §1, with “-80°” for “−80°”, “CompleteTM,” for “Complete™,”, “498). Kd values for [3H]-PGE2 binding to each receptor are determined by saturation binding studies or homologous competition. Compounds are tested in a 96-well format using a three-fold dilution series to generate a 10-point curve. […] The membranes are harvested by filtration (TomTek harvester), washed 4 times with cold buffer (10 mM MES pH 6.0 with KOH, 10 mM MgCl2), dried in a 60° C. oven, and the radioactivity is quantified as counts per minute (CPM) using a TopCount detector. […]” for “498).”

[4] = target: T1, human EP4 (Homo sapiens (Human), UniProt P35408); test: In vitro binding to human EP4, [3H]-PGE2 displacement on membranes; settings: HEK293 membranes, n = 7, read-out: hEP4, Ki
Target sequence in this assay (P35408 whole entry, looked up): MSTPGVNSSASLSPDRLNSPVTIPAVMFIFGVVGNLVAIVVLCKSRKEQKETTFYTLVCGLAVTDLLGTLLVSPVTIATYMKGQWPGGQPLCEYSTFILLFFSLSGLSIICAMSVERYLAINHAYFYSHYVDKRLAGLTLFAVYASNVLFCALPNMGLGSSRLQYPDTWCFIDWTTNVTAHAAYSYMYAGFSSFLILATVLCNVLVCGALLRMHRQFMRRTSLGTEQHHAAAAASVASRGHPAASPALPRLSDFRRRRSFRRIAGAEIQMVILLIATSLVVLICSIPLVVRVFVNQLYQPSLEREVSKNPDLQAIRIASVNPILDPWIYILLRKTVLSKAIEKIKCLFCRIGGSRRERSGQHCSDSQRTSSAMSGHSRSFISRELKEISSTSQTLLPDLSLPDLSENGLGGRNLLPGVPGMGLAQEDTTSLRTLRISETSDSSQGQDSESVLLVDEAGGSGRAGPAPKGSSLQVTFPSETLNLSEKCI
Experimental: Compounds are tested in a 96-well format using a three-fold dilution series to generate a 10-point curve. […] The binding reaction is performed in 200 μL MES buffer (10 mM MES pH 6.0 with KOH, 10 mM MgCl2 and 1 mM EDTA) using 0.5 mL polystyrene 96-well deep-well plates. […] The membranes are harvested by filtration (TomTek harvester), washed 4 times with cold buffer (10 mM MES pH 6.0 with KOH, 10 mM MgCl2), dried in a 60° C. oven, and the radioactivity is quantified as counts per minute (CPM) using a TopCount detector. […] Data are analyzed using a 4-parameter nonlinear logistic equation (ABase Equation 205) as shown: y=(A+((B−A)/(1+((C/x)^D)))) where, y=% specific inhibition, A=bottom of the curve; B=top of the curve; C=relative IC50 concentration causing 50% inhibition based on the range of the data from top to bottom; D=Hill, Slope=slope of the curve. Ki conversion from IC50 Values (Ki=IC50/(1+[L]/Kd) where [L] is the ligand concentration).

[5] = target: T1, human EP4; test: In vitro human EP4 functional antagonist activity (PGE2-stimulated cAMP, HTRF); assay type: cell-based; settings: read-out: IC50 measured at human EP4
From the text: The raw data are converted to cAMP amount (pmole/well) using a cAMP standard curve generated for each experiment.
Target sequence in this assay (P35408 whole entry): as the sequence (P35408 whole entry, looked up) above

[6] = target: rat EP4 (Rattus norvegicus (Rat), UniProt P43114); test: In vitro rat EP4 functional antagonist activity (PGE2-stimulated cAMP, HTRF); assay type: cell-based; settings: inhibition of PGE2-stimulated (EC80) cAMP production, HEK293 cells expressing rat EP4; read-out: IC50 measured at rat EP4
Experimental: To test EP4 antagonist compounds in rEP4 cells, thaw the frozen cells and then resuspend cells in cAMP assay buffer. The cAMP buffer is made by HBSS without Phenol Red (Hyclone, SH30268) supplemented with 20 mM HEPES (Hyclone, SH30237), 0.1% BSA (Gibco, 15260) and 125 μM IBMX (Sigma, 15879). The cells are plated into 96-well half area flat-bottom polystyrene black plates (Costar 3694). […] The cAMP levels generated from the cells are quantified by a cAMP HTRF assay kit (Cisbio 62AM4PEC). The plates are read on an EnVision plate reader using HTRF optimized protocol (PerkinElmer). IC50's are calculated using Graphpad Prism (v. 4) nonlinear regression, sigmoidal dose response curve fitting.

[7] = target: T1, human EP4; test: In vitro antagonist activity in human whole blood (reversal of PGE2 inhibition of LPS-induced TNFα production); assay type: cell-based; settings: read-out: IC50 measured at human EP4, human blood TNFα induction assay
Target sequence in this assay (P35408 whole entry, looked up): as above
Experimental: Blood is collected from normal volunteer donors into sodium heparin vacutainer tubes. Donors have not taken NSAIDs or celecoxib within 48 hours or glucocorticoids within two weeks of the donation. All tubes/donor are pooled into 50 mL Falcon conical centrifuge tubes and 98 μL/well is distributed into 96-well tissue culture plates (Falcon 3072). […] The plates are incubated for 20-24 hours at 37° C. in a 5% CO2 humidified atmosphere. The plates are centrifuged at 1800×g, 10 minutes at 22° C., in an Eppendorf 5810R centrifuge. Plasma is removed from the cell layer and is transferred to v-bottom polypropylene plates. TNFα levels in 2 μL plasma are quantified by a commercially available enzyme immunoassay (R&D Systems DY210), using Immulon 4 HBX plates (Thermo 3855) and 3,3′,5,5′ tetramethylbiphenyl-4,4′-diamine substrate (KPL 50-76-03). The plates are read at A450-A650 on a plate reader (Molecular Devices Versamax) using SOFTmaxPRO (v. 4.3.1) software. IC50s are calculated using Graphpad Prism (v. 4) nonlinear regression, sigmoidal dose response curve fitting. Results are expressed as the geometric mean±standard deviation; n=number of independent determinations.

Chain of human EP1 (P34995 whole entry, canonical isoform): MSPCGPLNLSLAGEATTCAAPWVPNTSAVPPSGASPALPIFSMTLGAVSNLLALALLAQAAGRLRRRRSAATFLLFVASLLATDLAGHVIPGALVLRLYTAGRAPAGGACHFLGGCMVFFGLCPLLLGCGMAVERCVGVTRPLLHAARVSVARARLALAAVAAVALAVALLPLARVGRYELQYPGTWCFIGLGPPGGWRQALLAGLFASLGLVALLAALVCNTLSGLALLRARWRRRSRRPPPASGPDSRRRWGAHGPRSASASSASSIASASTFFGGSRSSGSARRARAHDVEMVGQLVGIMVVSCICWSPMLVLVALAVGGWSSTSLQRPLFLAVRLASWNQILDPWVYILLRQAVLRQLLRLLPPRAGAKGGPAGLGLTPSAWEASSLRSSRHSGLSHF
Chain of rat EP4 (P43114 whole entry): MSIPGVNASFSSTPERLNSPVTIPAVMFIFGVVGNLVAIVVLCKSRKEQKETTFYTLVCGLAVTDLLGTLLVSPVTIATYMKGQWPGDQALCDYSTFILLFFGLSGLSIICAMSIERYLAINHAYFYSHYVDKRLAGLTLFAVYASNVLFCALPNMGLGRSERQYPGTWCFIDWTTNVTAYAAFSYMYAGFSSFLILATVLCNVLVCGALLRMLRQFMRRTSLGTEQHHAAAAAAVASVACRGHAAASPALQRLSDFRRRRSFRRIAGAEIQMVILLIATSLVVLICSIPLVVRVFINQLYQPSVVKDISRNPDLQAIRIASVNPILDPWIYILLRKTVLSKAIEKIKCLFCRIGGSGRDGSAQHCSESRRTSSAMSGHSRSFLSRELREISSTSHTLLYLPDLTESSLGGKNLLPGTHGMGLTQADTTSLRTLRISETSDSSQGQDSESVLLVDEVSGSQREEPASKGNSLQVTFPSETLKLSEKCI
Chain of human EP2 (P43116 whole entry): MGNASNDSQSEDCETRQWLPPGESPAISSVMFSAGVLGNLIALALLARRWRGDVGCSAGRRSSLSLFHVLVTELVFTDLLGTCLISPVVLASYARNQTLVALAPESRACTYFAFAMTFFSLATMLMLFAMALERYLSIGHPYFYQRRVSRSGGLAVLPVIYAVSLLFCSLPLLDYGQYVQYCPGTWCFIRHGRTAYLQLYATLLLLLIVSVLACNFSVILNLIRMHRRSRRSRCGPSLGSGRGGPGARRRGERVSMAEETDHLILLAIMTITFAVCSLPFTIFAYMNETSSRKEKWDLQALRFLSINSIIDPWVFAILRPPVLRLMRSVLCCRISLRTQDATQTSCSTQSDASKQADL
Chain of human EP3 (isoform VI) (P43115 whole entry, looked up, canonical isoform): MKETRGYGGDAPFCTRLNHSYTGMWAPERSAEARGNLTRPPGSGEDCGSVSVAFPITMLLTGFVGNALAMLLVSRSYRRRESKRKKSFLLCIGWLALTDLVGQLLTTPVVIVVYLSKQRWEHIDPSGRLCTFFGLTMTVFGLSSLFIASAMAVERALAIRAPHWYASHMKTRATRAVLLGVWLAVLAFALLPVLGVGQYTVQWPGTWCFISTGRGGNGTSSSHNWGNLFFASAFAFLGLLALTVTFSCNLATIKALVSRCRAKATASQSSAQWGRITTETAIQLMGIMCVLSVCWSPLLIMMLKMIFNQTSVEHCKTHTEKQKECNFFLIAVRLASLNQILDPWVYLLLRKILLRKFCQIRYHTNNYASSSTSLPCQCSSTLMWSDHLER

Ki [1]: > 17.5 µM | Ki [2]: > 18.9 µM | Ki [3]: > 14 µM | Ki [4]: 0.076 ± 0.047 µM | IC50 [5]: 0.0056 ± 0.0028 µM | IC50 [6]: 0.012 µM | IC50 [7]: 0.123 ± 0.081 µM
SMILES: Cc1ccc(N2CCC(O)CC2)nc1C(=O)Nc1c(C)cc(C(=O)O)cc1C [Example 1, 4-[[6-(4-hydroxy-1-piperidyl)-3-methyl-pyridine-2-carbonyl]amino]-3,5-dimethyl-benzoic acid]
